Source: ChEMBL document CHEMBL4017483, “Potent and selective oxytocin receptor agonists without disulfide bridges” (Bioorg Med Chem Lett, 2017)
Numbered stars: 1 amine (or outer) side, 2 acyl side, 3 side chain; on linkers, the order of the positions; unused ones are H or OH. Bridge positions count the residues as written; N and C are the ends. Square brackets hold non-standard residues; d marks the D form. Peptide text beside a SMILES is read from it. tBuAla = CC(C)(C)C[C@H](N)C(=O)O; Suc = O=C(CCC(=O)[*:2])[*:1]; NMeS = CN[C@@H](CO)C(=O)O; NMeA = CN[C@@H](C)C(=O)O; Dap = NC[C@H](N)C(=O)O; βAla = NCCC(=O)O; Mpa = O=C(O)CCS

Legend:
[1] = biological target: Vasopressin V1a receptor (Homo sapiens, UniProt P37288); assay: Agonist activity at human V1a receptor expressed in CHO cells assessed as calcium mobilization measured after 30 mins by Fluo-4-AM dye based FLIPR assay; assay type: cell-based
Sequence of Vasopressin V1a receptor (P37288 whole entry): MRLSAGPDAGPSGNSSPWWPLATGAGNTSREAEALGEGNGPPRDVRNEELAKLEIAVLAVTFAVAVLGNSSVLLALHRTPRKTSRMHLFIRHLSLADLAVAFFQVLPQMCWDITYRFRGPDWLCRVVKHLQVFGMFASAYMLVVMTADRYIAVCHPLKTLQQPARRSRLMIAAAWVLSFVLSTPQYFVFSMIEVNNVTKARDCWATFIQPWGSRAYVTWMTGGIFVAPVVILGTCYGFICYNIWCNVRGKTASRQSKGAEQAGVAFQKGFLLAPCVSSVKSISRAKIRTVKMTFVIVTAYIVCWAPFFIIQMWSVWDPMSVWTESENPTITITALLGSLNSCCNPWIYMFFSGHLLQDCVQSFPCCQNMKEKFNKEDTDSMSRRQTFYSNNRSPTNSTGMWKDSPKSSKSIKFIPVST

[2] = biological target: T1, Oxytocin receptor (Homo sapiens, UniProt P30559); assay: Agonist activity at human OTR expressed in CHO cells assessed as calcium mobilization measured after 30 mins by Fluo-4-AM dye based FLIPR assay; assay type: functional, cell-based
T1 sequence (P30559 whole entry): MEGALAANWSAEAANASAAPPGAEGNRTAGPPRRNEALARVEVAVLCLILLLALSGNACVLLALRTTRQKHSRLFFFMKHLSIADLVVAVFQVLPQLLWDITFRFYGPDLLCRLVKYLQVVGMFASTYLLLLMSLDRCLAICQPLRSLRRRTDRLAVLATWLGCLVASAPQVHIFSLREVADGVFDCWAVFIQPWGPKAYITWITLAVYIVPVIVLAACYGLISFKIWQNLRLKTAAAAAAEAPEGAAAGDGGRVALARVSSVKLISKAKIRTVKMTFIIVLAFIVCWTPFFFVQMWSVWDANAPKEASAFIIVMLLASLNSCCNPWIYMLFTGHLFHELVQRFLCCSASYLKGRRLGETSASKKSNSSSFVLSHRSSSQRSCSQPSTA

[3] = organism: Homo sapiens; assay: Selectivity ratio of EC50 for human V1b receptor to EC50 for human OTR
[4] = organism: Homo sapiens; assay: Selectivity ratio of EC50 for human V1a receptor to EC50 for human OTR
[5] = biological target: T2, Vasopressin V1b receptor (Homo sapiens, UniProt P47901); assay: Agonist activity at human V1b receptor expressed in CHO cells assessed as calcium mobilization measured after 30 mins by Fluo-4-AM dye based FLIPR assay; assay type: cell-based
T2 sequence (P47901 whole entry): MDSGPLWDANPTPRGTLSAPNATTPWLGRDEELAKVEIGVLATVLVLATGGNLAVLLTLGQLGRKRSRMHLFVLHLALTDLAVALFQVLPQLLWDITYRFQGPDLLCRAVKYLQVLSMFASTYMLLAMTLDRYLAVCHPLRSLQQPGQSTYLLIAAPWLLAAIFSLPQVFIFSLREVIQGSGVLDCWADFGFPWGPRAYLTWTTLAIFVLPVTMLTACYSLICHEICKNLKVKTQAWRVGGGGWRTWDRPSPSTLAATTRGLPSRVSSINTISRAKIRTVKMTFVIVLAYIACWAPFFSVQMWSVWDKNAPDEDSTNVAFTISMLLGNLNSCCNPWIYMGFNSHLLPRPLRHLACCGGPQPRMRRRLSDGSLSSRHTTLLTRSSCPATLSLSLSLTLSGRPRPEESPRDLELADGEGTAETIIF

| SMILES | EC50 [1] [nM] | EC50 [2] [nM] | Ratio EC50 [3] | Ratio EC50 [4] | EC50 [5] [nM] |
| --- | --- | --- | --- | --- | --- |
| CC[C@H](C)[C@@H]1NC(=O)[C@H](Cc2ccc(O)cc2)NC(=O)CCC(=O)NC[C@@H](C(=O)N2CCC[C@H]2C(=O)N[C@@H](CC(C)(C)C)C(=O)NCC(N)=O)NC(=O)[C@H](CC(N)=O)NC(=O)[C@H](CCC(N)=O)NC1=O (YIQN[Dap]P[tBuAla]G-NH2; linker N-5 via Suc) | > 100 | 0.26 | > 100 | > 100 | > 100 |
| S | > 100 | 0.12 | > 100 | > 100 | > 100 |
| CC[C@H](C)[C@@H]1NC(=O)[C@H](Cc2ccc(O)cc2)NC(=O)CCSSC[C@@H](C(=O)N(C)[C@@H](CO)C(=O)N[C@@H](CC(C)C)C(=O)NCC(N)=O)NC(=O)[C@H](CC(N)=O)NC(=O)[C@H](CCC(N)=O)NC1=O ([Mpa]YIQNC[NMeS]LG-NH2; disulfide 1-6) | > 100 | 0.042 | > 1000 | > 1000 | > 100 |
| CC[C@H](C)[C@@H]1NC(=O)[C@H](Cc2ccc(O)cc2)NC(=O)CCSSC[C@@H](C(=O)N2CCC[C@H]2C(=O)N[C@@H](CC(C)(C)C)C(=O)NCC(N)=O)NC(=O)[C@H](CC(N)=O)NC(=O)[C@H](CCC(N)=O)NC1=O | > 100 | 0.0086 | > 10000 | > 10000 | > 100 |
| CC[C@H](C)[C@@H]1NC(=O)[C@H](Cc2ccc(O)cc2)NC(=O)CCNC(=O)C[C@@H](C(=O)N2CCC[C@H]2C(=O)N[C@@H](CC(C)C)C(=O)NCC(N)=O)NC(=O)[C@H](CC(N)=O)NC(=O)[C@H](CCC(N)=O)NC1=O ([βAla]YIQNDPLG-NH2; lactam N-6) | > 100 | 13 | > 7.7 | > 7.7 | > 100 |
| CC[C@H](C)[C@@H]1NC(=O)[C@H](Cc2ccc(O)cc2)NC(=O)CCSSC[C@@H](C(=O)N2CCC[C@H]2C(=O)N[C@@H](CC(C)C)C(=O)NNC(N)=O)NC(=O)[C@H](CC(N)=O)NC(=O)[C@H](CCC(N)=O)NC1=O | 70 | 0.0075 | 970 | 9300 | 7.3 |
| CC[C@H](C)[C@@H]1NC(=O)[C@H](Cc2ccc(O)cc2)NC(=O)CCSSC[C@@H](C(=O)N2CCC[C@H]2C(=O)N[C@@H](CC(C)C)C(=O)NCC(N)=O)NC(=O)[C@H](CC(N)=O)NC(=O)[C@H](CCC(=O)O)NC1=O ([Mpa]YIENCPLG-NH2; disulfide 1-6) | > 100 | 5.1 | > 10 | > 10 | > 100 |
| CC[C@H](C)[C@@H]1NC(=O)[C@H](Cc2ccc(O)cc2)NC(=O)CCSSC[C@@H](C(=O)NCC(=O)N[C@@H](CC(C)C)C(=O)NCC(N)=O)NC(=O)[C@H](CC(N)=O)NC(=O)[C@H](CCC(N)=O)NC1=O ([Mpa]YIQNCGLG-NH2; disulfide 1-6) | > 100 | 0.013 | > 1000 | > 1000 | > 100 |
| CC[C@H](C)[C@@H]1NC(=O)[C@H](Cc2ccc(O)cc2)NC(=O)CCSSC[C@@H](C(=O)N2C[C@@H](O)C[C@H]2C(=O)N[C@@H](CC(C)C)C(=O)NCC(N)=O)NC(=O)[C@H](CC(N)=O)NC(=O)[C@H](CCC(N)=O)NC1=O | > 100 | 0.007 | 1200 | > 10000 | 8.2 |
| CC(C)C[C@H](NC(=O)[C@@H]1CCCN1C(=O)[C@@H]1CSSCCC(=O)N[C@@H](Cc2ccc(O)cc2)C(=O)N[C@@H](Cc2ccccc2)C(=O)N[C@@H](CCC(N)=O)C(=O)N[C@@H](CC(N)=O)C(=O)N1)C(=O)NCC(N)=O ([Mpa]YFQNCPLG-NH2; disulfide 1-6) | > 100 | 0.11 | 3.9 | > 100 | 0.43 |
| CC[C@H](C)[C@@H]1NC(=O)[C@H](Cc2ccc(O)cc2)NC(=O)CCSSC[C@@H](C(=O)N2CCC[C@H]2C(=O)N[C@@H](CC(C)C)C(=O)NCC(N)=O)NC(=O)[C@H](CC(N)=O)NC(=O)[C@H](CC(C)C)NC1=O ([Mpa]YILNCPLG-NH2; disulfide 1-6) | > 100 | 0.78 | 29 | > 100 | 23 |
| CC[C@H](C)[C@@H]1NC(=O)[C@H](Cc2ccc(O)cc2)NC(=O)CCC(=O)NC[C@@H](C(=O)N2CCC[C@H]2C(=O)N[C@@H](CC(C)C)C(=O)NCC(N)=O)NC(=O)[C@H](CC(N)=O)NC(=O)[C@H](CCC(N)=O)NC1=O (YIQN[Dap]PLG-NH2; linker N-5 via Suc) | > 100 | 0.12 | > 100 | > 100 | > 100 |
| CC[C@H](C)[C@@H]1NC(=O)[C@H](Cc2ccc(O)cc2)NC(=O)CCSSC[C@@H](C(=O)N[C@@H](Cc2ccccc2)C(=O)N[C@@H](CC(C)C)C(=O)NCC(N)=O)NC(=O)[C@H](CC(N)=O)NC(=O)[C@H](CCC(N)=O)NC1=O ([Mpa]YIQNCFLG-NH2; disulfide 1-6) | > 100 | 0.12 | > 100 | > 100 | > 100 |
| CC[C@H](C)[C@@H]1NC(=O)[C@H](Cc2ccc(O)cc2)NC(=O)CCSSC[C@@H](C(=O)N2CCCCC2C(=O)N[C@@H](CC(C)C)C(=O)NCC(N)=O)NC(=O)[C@H](CC(N)=O)NC(=O)[C@H](CCC(N)=O)NC1=O (stereo not given in full) | > 100 | 0.013 | 310 | > 1000 | 4 |
| CC[C@H](C)[C@@H]1NC(=O)[C@H](Cc2ccc(O)cc2)NC(=O)CCSSC[C@@H](C(=O)N(C)[C@@H](C)C(=O)N[C@@H](CC(C)C)C(=O)NCC(N)=O)NC(=O)[C@H](CC(N)=O)NC(=O)[C@H](CCC(N)=O)NC1=O ([Mpa]YIQNC[NMeA]LG-NH2; disulfide 1-6) | > 100 | 0.11 | > 100 | > 100 | > 100 |
| CC[C@H](C)[C@@H]1NC(=O)[C@H](Cc2ccc(O)cc2)NC(=O)CCSSC[C@@H](C(=O)N2CCC[C@H]2C(=O)N[C@@H](CC(C)C)C(=O)N[C@@H](CC(C)C)C(N)=O)NC(=O)[C@H](CC(N)=O)NC(=O)[C@H](CCC(N)=O)NC1=O ([Mpa]YIQNCPLL-NH2; disulfide 1-6) | > 100 | 1.6 | > 10 | > 10 | > 100 |
| CC[C@H](C)[C@@H]1NC(=O)[C@H](Cc2ccc(O)cc2)NC(=O)CCSSC[C@@H](C(=O)N2CCC[C@H]2C(=O)N[C@@H](CC(C)C)C(=O)N[C@@H](Cc2ccccc2)C(N)=O)NC(=O)[C@H](CC(N)=O)NC(=O)[C@H](CCC(N)=O)NC1=O ([Mpa]YIQNCPLF-NH2; disulfide 1-6) | > 100 | 1.6 | > 10 | > 10 | > 100 |
| CC[C@H](C)[C@@H]1NC(=O)[C@H](Cc2ccc(O)cc2)NC(=O)CCSSC[C@@H](C(=O)N2CCC[C@H]2C(=O)N[C@@H](CC(C)C)C(=O)N[C@@H](C)C(N)=O)NC(=O)[C@H](CC(N)=O)NC(=O)[C@H](CCC(N)=O)NC1=O ([Mpa]YIQNCPLA-NH2; disulfide 1-6) | > 100 | 1.4 | > 10 | > 10 | > 100 |
